Structures can show the parent of a compound that is named as a salt.
These compounds were tested against T1, hBK1 receptor (Homo sapiens, UniProt P46663) (assay: hBK1 receptor binding). Conditions: membranes of CHO cells expressing the hBK1 receptor; radioligand 0.5 to 1.0 nM kallidin (DesArg10, Leu9), [3,4-prolyl-3,43H(N)]; 60 minutes, room temperature.
T1 construct: expressed in transfected cells; host or cells: CHO cells (membrane homogenate)
T1 sequence (P46663 1-353): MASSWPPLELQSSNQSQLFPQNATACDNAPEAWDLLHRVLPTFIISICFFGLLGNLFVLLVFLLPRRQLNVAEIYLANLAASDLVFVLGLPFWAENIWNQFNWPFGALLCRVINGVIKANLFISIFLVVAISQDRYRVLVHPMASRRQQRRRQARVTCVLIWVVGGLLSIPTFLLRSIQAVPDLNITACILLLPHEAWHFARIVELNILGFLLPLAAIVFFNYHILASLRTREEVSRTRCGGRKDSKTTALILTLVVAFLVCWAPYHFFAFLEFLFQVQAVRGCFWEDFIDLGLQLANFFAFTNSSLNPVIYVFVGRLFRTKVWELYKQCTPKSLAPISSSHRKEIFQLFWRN
Protocol: CHO cells expressing the hBK1 receptor are cultivated in Dulbecco's modified medium. The medium from confluent cultures is removed and the cells are washed with PBS buffer, scraped off and isolated by centrifugation. The cells are then homogenized in suspension and the homogenate is centrifuged and resuspended. The protein content is determined and the membrane preparation obtained in this manner is then frozen at −80° C.
After thawing, 200 μl of the homogenate (50 to 100 μg of proteins/assay) are incubated at room temperature with 0.5 to 1.0 nM of kallidin (DesArg10, Leu9), [3,4-prolyl-3,43H(N)] and increasing concentrations of the test substance in a total volume of 250 μl for 60 minutes. The incubation is terminated by rapid filtration through GF/B glass fibre filters which had been pretreated with polyethyleneimine (0.3%). The protein-bound radioactivity is measured in a TopCount NXT. Non-specific binding is defined as radioactivity bound in the presence of 1.0 μM of […]. The concentration/binding curve is analysed using a computer-assisted nonlinear curve fitting. The Ki which corresponds to the test substance is determined using the data obtained in this manner.

| Structure (SMILES) | Ki [nM] |
| --- | --- |
| Cc1cc(S(=O)(=O)N(C)CCNC(=O)CCc2ccc(C3=NCCN3)cc2)c(C)cc1Cl [D, N-{2-[(4-chloro-2,5-dimethylbenzenesulphonyl)methylamino]ethyl}-3-[4-(4,5-dihydro-1H-imidazol-2-yl)phenyl]propionamide] | 170 |
| CN(CCc1ccc(C2=NCCN2)cc1)C(=O)C1CCCN(S(=O)(=O)c2cccc(Cl)c2Cl)C1 (centres unmarked) [C, 1-[(2,3-dichlorobenzenesulphonyl)piperidin-3-yl]-N-({2-[4-(4,5-dihydro-1H-imidazol-2-yl)phenyl]ethyl}methyl)carboxamide] | 957 |
| CC(C)N(CCCC(=O)N(C)CCc1ccc(C2=NCCN2)cc1)S(=O)(=O)c1cccc(Cl)c1Cl [A, 4-[(2,3-dichlorobenzenesulphonyl)isopropylamino]-N-{2-[4-(4,5-dihydro-1H-imidazol-2-yl)phenyl]ethyl}-N-methylbutyramide] | 62 |
| CN(CCN1CCN(CCc2ccc(C3=NCCN3)cc2)C1=O)S(=O)(=O)c1cccc(Cl)c1Cl [E, 2,3-dichloro-N-[2-(3-{2-[4-(4,5-dihydro-1H-imidazol-2-yl)phenyl]ethyl}-2-oxoimidazolidin-1-yl)ethyl]-N-methylbenzenesulphonamide hydrochloride] | 1520 |
| Cc1cc(S(=O)(=O)N2CCCCC2CCC(=O)N(C)CCc2ccc(C3=NCCN3)cc2)c(C)cc1Cl (centres unmarked) [B, 3-[1-(4-chloro-2,5-dimethylbenzenesulphonyl)piperidin-2-yl]-N-{2-[4-(4,5-dihydro-1H-imidazol-2-yl)phenyl]ethyl}-N-methylpropionamide hydrochloride] | 26 |
